The target of one assay is CK1ε (Homo sapiens (Human), UniProt P49674). Nature of the assay: CK1ε kinase assay (Caliper LABCHIP electrophoretic separation of fluoresceinated peptide substrate and product). The class given is biochemical. Conditions: 200 pM enzyme, 50 μM ATP, 22 hours at room temperature. The gist of the method: (§1)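 Reactions ran 22 hours at room temperature and were stopped with EDTA. Phosphorylated product and unphosphorylated substrate were then separated electrophoretically. Compounds were tested at eleven concentrations, and IC50 values came from non-linear regression.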
Sequence of CK1ε (P49674 whole entry): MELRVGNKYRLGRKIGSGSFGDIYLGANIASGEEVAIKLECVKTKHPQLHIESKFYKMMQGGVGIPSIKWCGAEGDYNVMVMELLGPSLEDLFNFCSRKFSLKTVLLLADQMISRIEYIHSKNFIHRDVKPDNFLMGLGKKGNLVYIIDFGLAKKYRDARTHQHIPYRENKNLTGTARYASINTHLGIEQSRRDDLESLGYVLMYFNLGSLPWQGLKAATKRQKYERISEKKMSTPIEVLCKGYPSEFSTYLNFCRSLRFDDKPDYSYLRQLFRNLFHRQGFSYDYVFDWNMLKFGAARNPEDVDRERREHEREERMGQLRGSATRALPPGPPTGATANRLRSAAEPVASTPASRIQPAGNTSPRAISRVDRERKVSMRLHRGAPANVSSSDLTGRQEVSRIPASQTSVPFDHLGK

A further assay has as its target CK1δ (Homo sapiens (Human), UniProt P48730). Nature of the assay: CK1δ kinase assay (Caliper LABCHIP electrophoretic separation of fluoresceinated peptide substrate and product). The class given is biochemical. Conditions: 200 pM enzyme, 50 μM ATP, 22 hours at room temperature. The gist of the method:
as §1

Sequence of CK1δ (P48730 whole entry): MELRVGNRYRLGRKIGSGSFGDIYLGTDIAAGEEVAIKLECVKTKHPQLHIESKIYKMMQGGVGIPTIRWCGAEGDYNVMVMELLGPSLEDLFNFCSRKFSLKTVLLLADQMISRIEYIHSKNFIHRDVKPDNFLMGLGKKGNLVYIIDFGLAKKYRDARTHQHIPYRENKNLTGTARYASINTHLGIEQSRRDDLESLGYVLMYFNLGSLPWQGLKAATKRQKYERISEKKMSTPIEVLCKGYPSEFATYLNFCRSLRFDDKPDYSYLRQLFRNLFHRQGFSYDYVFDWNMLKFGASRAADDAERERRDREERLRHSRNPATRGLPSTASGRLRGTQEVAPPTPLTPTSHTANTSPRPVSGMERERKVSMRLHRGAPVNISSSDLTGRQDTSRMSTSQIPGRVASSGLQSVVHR

On to `O=C(Nc1cn2nc(-c3c(-c4ccc(F)cc4)ncn3C3CCOCC3)ccc2n1)c1ccncc1` [Compound 434, N-(6-(4-(4-Fluorophenyl)-1-(tetrahydro-2H-pyran-4-yl)-1H-imidazol-5-yl)imidazo[1,2-b]pyridazin-2-yl)isonicotinamide], for which the IC50 (usually the concentration needed to halve the response being measured) against CK1ε was 1.8 nM; on CK1δ it was 0.3 nM.

Consider `O=C(Nc1cn2nc(-c3c(-c4ccc(F)cc4)nc4n3CCC4)ccc2n1)c1ccnc(F)c1` [Compound 436, 2-Fluoro-N-(6-(2-(4-fluorophenyl)-6,7-dihydro-5H-pyrrolo[1,2-a]imidazol-3-yl)imidazo[1,2-b]pyridazin-2-yl)isonicotinamide], for which the IC50 against CK1ε was found to be 2 nM; at CK1δ it was 0.4 nM.

Take `O=C(Nc1cn2nc(-c3c(-c4ccc(F)cc4)nc4n3CCC4)ccc2n1)c1ccncc1` [Compound 438, N-(6-(2-(4-Fluorophenyl)-6,7-dihydro-5H-pyrrolo[1,2-a]imidazol-3-yl)imidazo[1,2-b]pyridazin-2-yl)isonicotinamide]: the IC50 against CK1ε was 2.1 nM; against CK1δ, 0.3 nM.

`O=C(Nc1cn2nc(-c3c(-c4ccc(F)cc4)nc4n3CCC4)ccc2n1)c1ccnc(N2CCOCC2)c1` [Compound 439, N-(6-(2-(4-Fluorophenyl)-6,7-dihydro-5H-pyrrolo[1,2-a]imidazol-3-yl)imidazo[1,2-b]pyridazin-2-yl)-2-morpholinoisonicotinamide]: the IC50 on CK1ε stood at 3.3 nM; on CK1δ, 1.3 nM.

Regarding `O=C(Nc1cn2nc(-c3c(-c4ccc(F)cc4)nc4n3CCC4)ccc2n1)c1cccc(-c2cccnc2)c1` [Compound 440, N-(6-(2-(4-Fluorophenyl)-6,7-dihydro-5H-pyrrolo[1,2-a]imidazol-3-yl)imidazo[1,2-b]pyridazin-2-yl)-3-(pyridin-3-yl)benzamide], the IC50 is 1.3 nM on CK1ε and 0.4 nM against CK1δ.

Regarding `O=C(Nc1cn2nc(-c3c(-c4ccc(F)cc4)nc4n3CCCC4)ccc2n1)c1ccnc(F)c1` [Compound 441, 2-Fluoro-N-(6-(2-(4-fluorophenyl)-5,6,7,8-tetrahydroimidazo[1,2-a]pyridin-3-yl)imidazo[1,2-b]pyridazin-2-yl)isonicotinamide], the IC50 worked out at 5.4 nM against CK1ε and 0.8 nM against CK1δ.

As for `O=C(Nc1cn2nc(-c3c(-c4ccc(F)cc4)nc4n3CCCC4)ccc2n1)c1cccc(-c2cccnc2)c1` [Compound 442, N-(6-(2-(4-Fluorophenyl)-5,6,7,8-tetrahydroimidazo[1,2-a]pyridin-3-yl)imidazo[1,2-b]pyridazin-2-yl)-3-(pyridin-3-yl)benzamide], the figures for the IC50 against CK1ε and on CK1δ were 2.5 nM and 0.4 nM, respectively.

Regarding `O=C(Nc1cn2nc(-c3c(-c4ccc(F)cc4)nc4n3CCCC4)ccc2n1)c1ccnc(N2CCOCC2)c1` [Compound 443, N-(6-(2-(4-Fluorophenyl)-5,6,7,8-tetrahydroimidazo[1,2-a]pyridin-3-yl)imidazo[1,2-b]pyridazin-2-yl)-2-morpholinoisonicotinamide], the results for the IC50 on CK1ε and on CK1δ were 2.7 nM and 0.4 nM, respectively.

As for `O=C(Nc1cn2nc(-c3c(-c4ccc(F)cc4)nc4n3CCCC4)ccc2n1)c1ccncc1` [Compound 444, N-(6-(2-(4-Fluorophenyl)-5,6,7,8-tetrahydroimidazo[1,2-a]pyridin-3-yl)imidazo[1,2-b]pyridazin-2-yl)isonicotinamide], the IC50 against CK1ε worked out at 2.4 nM; against CK1δ, 0.2 nM.

Consider `O=C(Nc1cn2nc(-c3c(-c4ccc(F)cc4)nc4n3CCCC4)ccc2n1)c1cc(F)nc(F)c1` [Compound 445, 2,6-Difluoro-N-(6-(2-(4-fluorophenyl)-5,6,7,8-tetrahydroimidazo[1,2-a]pyridin-3-yl)imidazo[1,2-b]pyridazin-2-yl)isonicotinamide], for which the values for the IC50 against CK1ε and against CK1δ were 4.7 nM and 0.4 nM, respectively.

As to `O=C(Nc1cn2nc(-c3c(-c4ccc(F)cc4)nc4n3CCOC4)ccc2n1)c1ccnc(F)c1` [Compound 447, 2-Fluoro-N-(6-(2-(4-fluorophenyl)-6,8-dihydro-5H-imidazo[2,1-c][1,4]oxazin-3-yl)imidazo[1,2-b]pyridazin-2-yl)isonicotinamide], the results for the IC50 at CK1ε and against CK1δ were 5.8 nM and 0.4 nM, respectively.

With `O=C(Nc1cn2nc(-c3c(-c4ccc(F)cc4)nc4n3CCOC4)ccc2n1)c1ccncc1` [Compound 448, N-(6-(2-(4-Fluorophenyl)-6,8-dihydro-5H-imidazo[2,1-c][1,4]oxazin-3-yl)imidazo[1,2-b]pyridazin-2-yl)isonicotinamide], the IC50 at CK1ε stood at 3.6 nM; against CK1δ it was 0.4 nM.

Take `O=C(Nc1cn2nc(-c3c(-c4ccc(F)cc4)nc4n3CCOC4)ccc2n1)c1cc(F)nc(F)c1` [Compound 449, 2,6-Difluoro-N-(6-(2-(4-fluorophenyl)-6,8-dihydro-5H-imidazo[2,1-c][1,4]oxazin-3-yl)imidazo[1,2-b]pyridazin-2-yl)isonicotinamide]: the values for the IC50 on CK1ε and at CK1δ were 9 nM and 0.7 nM, respectively.

In the case of `O=C(Nc1cn2nc(-c3c(-c4ccc(F)cc4)nc4n3CCOC4)ccc2n1)c1ccnc(N2CCOCC2)c1` [Compound 450, N-(6-(2-(4-Fluorophenyl)-6,8-dihydro-5H-imidazo[2,1-c][1,4]oxazin-3-yl)imidazo[1,2-b]pyridazin-2-yl)-2-morpholinoisonicotinamide], the IC50 came out at 6.9 nM at CK1ε and 0.7 nM against CK1δ.

Take `O=C(Nc1cn2nc(-c3c(-c4ccc(F)cc4)nc4n3CCOC4)ccc2n1)c1cccc(-c2cccnc2)c1` [Compound 451, N-(6-(2-(4-Fluorophenyl)-6,8-dihydro-5H-imidazo[2,1-c][1,4]oxazin-3-yl)imidazo[1,2-b]pyridazin-2-yl)-3-(pyridin-3-yl)benzamide]: the IC50 against CK1ε came out at 4.6 nM; against CK1δ, 0.4 nM.

Turning to `O=C(Nc1cn2nc(-c3c(-c4ccc(F)cc4)nc4ccc(N5CCOCC5)cn34)ccc2n1)c1ccnc(F)c1` [Compound 452, 2-Fluoro-N-(6-(2-(4-fluorophenyl)-6-morpholinoimidazo[1,2-a]pyridin-3-yl)imidazo[1,2-b]pyridazin-2-yl)isonicotinamide], the figures for the IC50 against CK1ε and against CK1δ were 1.5 nM and 0.3 nM, respectively.

As to `O=C(Nc1cn2nc(-c3c(-c4ccc(F)cc4)nc4n3CCNC4)ccc2n1)c1ccncc1` [Compound 456, N-(6-(2-(4-Fluorophenyl)-5,6,7,8-tetrahydroimidazo[1,2-a]pyrazin-3-yl)imidazo[1,2-b]pyridazin-2-yl)isonicotinamide], the IC50 came to 7 nM against CK1ε and 0.9 nM against CK1δ.

For `O=C(Nc1cn2nc(-c3c(-c4ccc(F)cc4)nc4n3CCNC4)ccc2n1)c1cc(F)nc(F)c1` [Compound 457, 2,6-Difluoro-N-(6-(2-(4-fluorophenyl)-5,6,7,8-tetrahydroimidazo[1,2-a]pyrazin-3-yl)imidazo[1,2-b]pyridazin-2-yl)isonicotinamide], the half-inhibitory concentration (IC50) against CK1ε was determined as 8.5 nM; on CK1δ, 0.5 nM.

As for `O=C(Nc1cn2nc(-c3c(-c4ccc(F)cc4)nc4n3CCNC4)ccc2n1)c1ccnc(N2CCOCC2)c1` [Compound 458, N-(6-(2-(4-Fluorophenyl)-5,6,7,8-tetrahydroimidazo[1,2-a]pyrazin-3-yl)imidazo[1,2-b]pyridazin-2-yl)-2-morpholinoisonicotinamide], the IC50 against CK1ε worked out at 3.7 nM; against CK1δ, 0.3 nM.

For the molecule `O=C(Nc1cn2nc(-c3c(-c4ccc(F)cc4)nc4n3CCNC4)ccc2n1)c1cccc(-c2cccnc2)c1` [Compound 459, N-(6-(2-(4-Fluorophenyl)-5,6,7,8-tetrahydroimidazo[1,2-a]pyrazin-3-yl)imidazo[1,2-b]pyridazin-2-yl)-3-(pyridin-3-yl)benzamide], the IC50 against CK1ε is 2.6 nM; against CK1δ, 0.3 nM.

As for `CC(=O)N1CCn2c(nc(-c3ccc(F)cc3)c2-c2ccc3nc(NC(=O)c4ccnc(F)c4)cn3n2)C1` [Compound 460, N-(6-(7-Acetyl-2-(4-fluorophenyl)-5,6,7,8-tetrahydroimidazo[1,2-a]pyrazin-3-yl)imidazo[1,2-b]pyridazin-2-yl)-2-fluoroisonicotinamide], the IC50 against CK1ε was 3.7 nM; on CK1δ, 0.6 nM.

As to `O=C(Nc1cn2nc(-c3c(-c4ccc(F)cc4)nc4n3CCN(C(=O)CC(F)(F)F)C4)ccc2n1)c1ccnc(F)c1` [Compound 461, 2-Fluoro-N-(6-(2-(4-fluorophenyl)-7-(3,3,3-trifluoropropanoyl)-5,6,7,8-tetrahydroimidazo[1,2-a]pyrazin-3-yl)imidazo[1,2-b]pyridazin-2-yl)isonicotinamide], the IC50 stood at 2.6 nM on CK1ε and 0.6 nM on CK1δ.

With `O=C(Nc1cn2nc(-c3c(-c4ccc(F)cc4)nc4n3CCN(C(=O)CCC(F)(F)F)C4)ccc2n1)c1ccnc(F)c1` [Compound 462, 2-Fluoro-N-(6-(2-(4-fluorophenyl)-7-(4,4,4-trifluorobutanoyl)-5,6,7,8-tetrahydroimidazo[1,2-a]pyrazin-3-yl)imidazo[1,2-b]pyridazin-2-yl)isonicotinamide], the IC50 against CK1ε turned out to be 6.5 nM; against CK1δ, 1.2 nM.

`CC(C)C(=O)N1CCn2c(nc(-c3ccc(F)cc3)c2-c2ccc3nc(NC(=O)c4ccnc(F)c4)cn3n2)C1` [Compound 463, 2-Fluoro-N-(6-(2-(4-fluorophenyl)-7-isobutyryl-5,6,7,8-tetrahydroimidazo[1,2-a]pyrazin-3-yl)imidazo[1,2-b]pyridazin-2-yl)isonicotinamide]: the values for the IC50 against CK1ε and at CK1δ were 3.8 nM and 0.5 nM, respectively.

On to `CC(C)(C)C(=O)N1CCn2c(nc(-c3ccc(F)cc3)c2-c2ccc3nc(NC(=O)c4ccnc(F)c4)cn3n2)C1` [Compound 464, 2-Fluoro-N-(6-(2-(4-fluorophenyl)-7-pivaloyl-5,6,7,8-tetrahydroimidazo[1,2-a]pyrazin-3-yl)imidazo[1,2-b]pyridazin-2-yl)isonicotinamide], for which the IC50 against CK1ε worked out at 2.3 nM; against CK1δ, 0.1 nM.

The values are drawn from patent US9556179B2 (BRISTOL-MYERS SQUIBB COMPANY, priority 2012, dated 2017).
